According to ChEMBL document CHEMBL1154017, “Functionalization of the A ring of pyridoacridine as a route toward greater structural diversity. Synthesis of an octacyclic analogue of eilatin” (Bioorg Med Chem Lett, 2009):
Activity calls are given as the source filed them. No cut-off for these calls is given here.

Legend:
[1] = Partition coefficient, log P of the compound; assay type: physicochemical; settings: octanol/water
[2] = Dissociation constant, pKa at physiological pH; assay type: physicochemical
HT29-AK = test: Cytotoxic activity against human HT29-AK cells assessed as cell survival at 5 uM; assay type: functional, cell-based
A-431 [3] = test: Cytotoxic activity against human A431 cells assessed as cell survival at 5 uM; assay type: functional; settings: read-out: Activity
A-431 [4] = test: Cytostatic activity against human A431 cells; assay type: functional, cell-based
[5] = Cytostatic activity against human HT29-AK cells; assay type: functional
[6] = Solubility in water; assay type: physicochemical; settings: buffer

logP [1] | pKa [2] | IC50 (A-431 [4]) | solubility [6] | SMILES | Activity (HT29-AK) | viability at 5 µM (A-431 [3]) | IC60 [5]
3.69 | 4.5 | – | – | Clc1ccc2c(c1)Nc1cccc3ccnc-2c13 | – | – | –
– | – | – | – | CCOc1ccc2c3c(nccc13)-c1ccc3nc4c5cccnc5c5ncccc5c4nc3c1N2 | inactive | 85% | –
2.62 | 5.3 | 2.1 µM | Soluble | CCOc1ccc2c3c(nccc13)-c1ccc(N)cc1N2 | – | – | 1.35 µM
